From paper PMC5745756, “N,N-disubstituted azines attenuate LPS-mediated neuroinflammation in microglia and neuronal apoptosis via inhibiting MAPK signaling pathways” (BMC Neuroscience, 2017)

Tests used:
Assay type in all cases: cell-based, murine
p38 = assay: Western blot of LPS-induced p38 phosphorylation in BV-2 cells; details: 5–20 µM; LPS 30 min, similar pattern at 24 h
Experimental: (§1) BV-2 cells were seeded in a 6-well plate at a density of 6 × 10^5 cells/well and exposed to LPS (100 ng/mL) in the presence or absence of compound 3 for required time. After treatment, cells were collected and lysed in cell lysis buffer (50 mM Tris–HCl, pH 8.0, 0.1% SDS, 150 mM NaCl, 1% NP-40, 0.02% sodium azide, 0.5% sodium deoxycholate, 100 µg/mL PMSF, and […]) for 24 h at 4 °C. The protein content was measured using a Bradford assay. Equal amounts of protein (30 µg) were separated using SDS-PAGE and transferred to a nitrocellulose membrane. The membrane was blocked for 1 h with 5% skim milk in tris-buffered saline with Tween-20 (TBST) and then incubated for 12 h with primary antibodies against α-tubulin (Sigma-Aldrich Cat. no: T5168), iNOS (Bioscience Cat. no: 610333, COX-2 (Santa Cruz Cat. no: sc-1745), ERK (Cell Signaling Cat. no: 9107s), pERK (Cell Signaling Cat. no: 5013s), JNK (Cell Signaling Cat. no: 9252s), pJNK (Cell Signaling Cat. no: 4671s), p38 (Cell Signaling Cat. no: 8690s), and pP38 (Cell Signaling Cat. no: 9211s), followed by incubation for 1 h with horseradish peroxidase-conjugated secondary antibodies (Cell Signaling) at 15 °C. […]
(§2) Fig. 3 Effect of compound 3 on MAPK pathway in LPS-induced BV-2 cells. […] The phosphorylation of p38, JNK, and ERK was measured by western blotting (a–c). […]

N2a cells = assay: Annexin V/PI staining (FACS) of N2a cells given conditioned media from BV-2 cells; details: CM of compound at each concentration tested (5, 10, 20 µM)
Experimental: An annexin V/PI apoptosis kit was used in accordance with the manufacturer’s instructions to quantify the percentage of cells undergoing apoptosis. First, BV-2 cells were incubated for 24 h with 5, 10, and 20 µM of compound 3 or LPS (100 ng/mL). Then, N2a cells were treated with the supernatant of the treated BV-2 cells and incubated. After 24 h, the cells were collected, washed twice with cold PBS, and re-suspended in binding buffer at a concentration of […]. Annexin V-FITC (5 µL) and PI (10 µL) were added, and the cells were incubated for 15 min at room temperature in the dark. Following incubation, 200 µL of binding buffer was added, and the cells were immediately analyzed by flow cytometry (FACSAriaIII; BD Biosciences, Franklin Lakes, NJ, USA). The flow cytometric analysis was performed using the Cell Quest software (BD Biosciences). The annexin V+/PI− cells and annexin V−/PI+ cells were used to identify apoptotic cells and necrotic cells, respectively. The procedure was repeated three times for each sample.
Fig. 4 Neuroprotection of compound 3 in LPS-activated microglia in N2a cells. […] An annexin V/PI apoptosis kit was used to quantify the percentage of cells undergoing apoptosis and necrosis (x-axis, annexin V; y-axis, PI) by using FACS analysis. […]

[1] = tested on: c-Jun N-terminal kinase (JNK); assay: Western blot of LPS-induced JNK phosphorylation in BV-2 cells; details: 5–20 µM; LPS 30 min, similar pattern at 24 h
Experimental: as §1, §2

IL-6 = assay: ELISA of IL-6 in LPS-activated BV-2 culture medium; details: LPS 24 h
Experimental: To measure TNF-α, IL-6, and PGE2, BV-2 cells were seeded in a 24-well plate at a density of 3 × 10^5 cells/well. The cells were treated with LPS (100 ng/mL) in the presence or absence of compound 3 for 24 h, and the media was collected and centrifuged. IL-6, TNF-α, and PGE2 produced in microglial culture supernatants […] were measured by competitive enzyme immunoassay kits (R&D systems, Minneapolis, MN, USA) in accordance with the manufacturer’s protocol.
Fig. 2 Effect of compound 3 on LPS-induced iNOS and COX2 expression in BV-2 cells. BV-2 cells were pretreated with various concentrations (5, 10, and 20 µM) of compound 3 for 30 min and activated with 100 ng/mL LPS. After 6 h, the cells were collected for analysis of iNOS and COX-2 expression using western blot analysis (a–c). Similarly, LPS activation was made for 24 h as chronic BV2 activation and the iNOS and COX-2 expression was measured (d). α-Tubulin was used as the loading control. The densitometric analysis of bands was performed as described in the methods section. After 24 h, the culture medium was subsequently collected to measure the quantity of PGE2 (e), IL-6 (f), and TNF-α (g) using ELISA analysis. […]

## COc1cc(/C=C/C=N/N=C/C=C/c2ccc(O)c(OC)c2)ccc1O [Compound 3, 4,4′-(1E,1′E,3E,3′E)-3,3′-(hydrazine-1,2-diylidene)bis(prop-1-ene-1-yl-3-ylidene)bis(2-methoxyphenol)]
p38
  LPS-induced phosphorylation of p38: significantly inhibited
N2a cells
  Concentration of apoptotic and necrotic N2a cells: decrease
[1]
  LPS-induced phosphorylation of JNK: significantly inhibited
IL-6; 20 µM
  IL-6 secretion: noticeable activity
IL-6; 5 and 10 µM
  IL-6 secretion: did not significantly inhibit
